From US20250044299A1, “PROTEIN STABILITY ASSAY” (Medicines Discovery Catapult Limited, priority 2021, published 2025)
One block for each compound: values may come before it.

Experiments:
Format in all cases: binding
[1] = biological target: p38α MAPK (Homo sapiens, UniProt Q16539); assay: Protein stability assay screening study, AlphaLISA endpoint, HEK293T cell lysate, compound concentration response at fixed AEA or EA (Example 2); parameters: endogenous in cells; host or cells: HEK293T; details: fixed 22% AEA or 20% EA, 10-point concentration response
Description: The fixed denaturant concentration to be added was made up as a 5/4 stock so that when 8 μl of denaturant was added to 2 μl lysate the final volume was 10 μl and the denaturant concentrations were as listed above. After compound/lysate incubation was complete 8 μl of the prepared AEA or EA stock was added to each well of separate plates, the contents of the plates were settled by a short pulse spin, sealed, and then incubated with shaking at 800 rpm for 120 minutes on a heated plate shaker set to 21° C. For signal detection an antibody detection mix was made up no more than 20 minutes prior to use. […] 10 μl of antibody bead mix was added to each test well, the contents of the plates were settled by a short pulse spin, sealed, shaken gently for 1-2 minutes, wrapped in foil, and then incubated for 16-18 hours in the dark. After incubation the plates were read on a fluorescence detecting plate reader (Excitation 680 nm, Emission 615 nm) to determine well signals. Concentration response curves were produced from normalised data using the Genedata Screener data analysis package, and EC50 values generated to allow data comparison between the two denaturant types.

[2] = biological target: T1, CDK9 (Homo sapiens, UniProt P50750); assay: Protein stability assay with Western blot endpoint, cell lysate, AEA titration (Example 5); details: 100 μM compound as printed, vs DMSO
T1 construct: Lysate from U-2 OS cells grown in continuous culture; endogenous in cells; b320 says HEK293T
Description: (§1) Lysate from U-2 OS cells grown in continuous culture at 5% CO2/37° C. in full growth media (RPMI (Gibco 11835-063), 10% FCS (Gibco F7524) 1% Glutamax (Gibco 35050-061)) was produced by growing cells in T175 flasks to 85% confluence, removing from the surface using 3 ml Tryple Select (Gibco 12563011), centrifuging (1000 rpm for 4 minutes) to pellet, washing cell pellet two times in DPBS (Gibco 14190-094), resuspending 1 ml of DPBS (Gibco 14190-094) containing 1× HALT Protease and Phosphatase inhibitor cocktail (Thermo Scientific 78440) per flask and lysing by three cycles of a liquid nitrogen freeze followed by thawing at room temperature. […]
Lysate/compound mixes were incubated for 30-60 minutes at room temperature. While incubating, fresh 100% AEA (Acetone (11443733) Ethanol (10437341) and Acetic Acid (10365020), all from Fisher Scientific in a ratio of 50:50:0.1) denaturant was made in a glass bottle ready for use. An aliquot of 100% AEA was diluted to 50% in DPBS (Gibco 14190-094) ready to produce either titration curves or a fixed concentration of denaturant. […]

[3] = biological target: T2, AKT1 (Homo sapiens, UniProt P31749); assay: Protein stability assay, AlphaLISA endpoint, HEK293T cell lysate, EA (Example 8)
T2 construct: endogenous in cells; host or cells: HEK293T
Description: as §1, with “HEK293T” for “U-2 OS”, “in” for “in T175”, “resuspending in” for “resuspending”
To run the protein stability assay, an aliquot of HEK293T cell lysate at 4 μg/μl was thawed at room temperature and 2 μl added to each well of a 384-well White ProxiPlate (Perkin Elmer 6008280) containing […] MK-2206 (LKT Laboratories M400220) or an equivalent volume of DMSO dosed using the Labcyte ECHO. […] While incubating, fresh 100% EA (Ethanol (10437341) and Acetic Acid (10365020), all from Fisher Scientific in a ratio of 100:0.1) denaturant was made in a glass bottle ready for use. An aliquot of 100% EA was diluted to 50% in DPBS (Gibco 14190-094) ready to produce titration curves of denaturant. […]

T2 sequence (P31749 whole entry): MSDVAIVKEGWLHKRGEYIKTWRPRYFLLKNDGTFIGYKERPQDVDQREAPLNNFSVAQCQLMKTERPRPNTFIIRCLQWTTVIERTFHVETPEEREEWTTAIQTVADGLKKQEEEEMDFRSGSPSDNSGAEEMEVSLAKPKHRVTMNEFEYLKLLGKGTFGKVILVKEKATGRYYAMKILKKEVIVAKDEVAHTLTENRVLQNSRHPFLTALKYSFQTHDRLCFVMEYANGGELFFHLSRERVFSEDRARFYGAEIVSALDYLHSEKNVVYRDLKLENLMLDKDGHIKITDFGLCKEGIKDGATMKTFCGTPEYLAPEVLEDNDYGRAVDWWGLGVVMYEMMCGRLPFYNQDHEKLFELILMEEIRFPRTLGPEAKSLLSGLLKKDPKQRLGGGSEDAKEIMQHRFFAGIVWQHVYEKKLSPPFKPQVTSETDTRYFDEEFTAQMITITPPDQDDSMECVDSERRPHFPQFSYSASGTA
Sequence of p38α MAPK (Q16539 whole entry): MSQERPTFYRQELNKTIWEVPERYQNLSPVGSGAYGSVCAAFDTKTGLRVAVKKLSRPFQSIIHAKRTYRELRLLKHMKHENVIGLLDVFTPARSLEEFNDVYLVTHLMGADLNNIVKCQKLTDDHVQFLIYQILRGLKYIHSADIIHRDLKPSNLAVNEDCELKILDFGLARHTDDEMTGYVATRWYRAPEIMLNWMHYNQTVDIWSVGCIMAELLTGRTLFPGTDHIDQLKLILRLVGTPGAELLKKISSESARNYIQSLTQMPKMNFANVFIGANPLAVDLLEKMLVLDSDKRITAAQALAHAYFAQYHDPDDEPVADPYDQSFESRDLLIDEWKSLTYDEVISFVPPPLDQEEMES
T1 sequence (P50750 whole entry): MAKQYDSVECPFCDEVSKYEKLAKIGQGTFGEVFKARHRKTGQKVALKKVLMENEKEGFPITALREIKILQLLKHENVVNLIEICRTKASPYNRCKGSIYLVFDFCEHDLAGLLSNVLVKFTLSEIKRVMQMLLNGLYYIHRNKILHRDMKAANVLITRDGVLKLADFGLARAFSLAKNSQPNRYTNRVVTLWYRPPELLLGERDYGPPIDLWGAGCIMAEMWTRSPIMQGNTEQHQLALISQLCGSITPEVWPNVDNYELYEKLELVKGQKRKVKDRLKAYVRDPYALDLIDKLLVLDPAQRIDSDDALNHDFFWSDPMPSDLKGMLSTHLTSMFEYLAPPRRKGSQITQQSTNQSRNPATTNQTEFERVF
T1 sequence (O60563 whole entry partner): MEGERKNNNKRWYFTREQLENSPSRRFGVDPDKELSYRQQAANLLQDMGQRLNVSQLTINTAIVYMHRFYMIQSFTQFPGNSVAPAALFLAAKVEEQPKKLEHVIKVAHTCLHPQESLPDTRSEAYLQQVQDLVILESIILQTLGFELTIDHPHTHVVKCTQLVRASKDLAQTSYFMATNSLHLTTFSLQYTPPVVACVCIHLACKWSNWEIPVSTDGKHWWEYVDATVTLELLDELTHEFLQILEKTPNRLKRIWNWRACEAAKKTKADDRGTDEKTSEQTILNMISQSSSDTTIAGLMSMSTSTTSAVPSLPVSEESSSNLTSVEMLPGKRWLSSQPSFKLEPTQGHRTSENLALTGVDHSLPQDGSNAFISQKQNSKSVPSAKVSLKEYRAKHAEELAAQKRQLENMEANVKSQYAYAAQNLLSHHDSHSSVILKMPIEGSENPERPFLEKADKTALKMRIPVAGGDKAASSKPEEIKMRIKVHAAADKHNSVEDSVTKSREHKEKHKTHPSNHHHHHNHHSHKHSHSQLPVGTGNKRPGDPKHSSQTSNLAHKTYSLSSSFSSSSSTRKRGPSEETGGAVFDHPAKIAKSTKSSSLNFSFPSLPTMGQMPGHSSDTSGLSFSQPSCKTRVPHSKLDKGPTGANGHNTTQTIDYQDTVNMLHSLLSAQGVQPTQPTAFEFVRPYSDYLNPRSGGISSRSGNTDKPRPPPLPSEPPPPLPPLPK

Structure (SMILES): O=c1ncn2nc(Sc3ccc(F)cc3F)ccc2c1-c1c(Cl)cccc1Cl [VX 745]
stabilisation of protein, compound concentration response curves [1]: stabilisation of protein in a dose dependent manner

stabilisation of CDK9 protein against chemical denaturation [2]: increased stabilisation of CDK9 protein
Structure (SMILES): Cc1ncc(-c2ccnc(Nc3ccc(S(C)(=O)=O)cc3)n2)n1C(C)C [AZD5438]

stabilisation of AKT1 protein (shift in protein denaturation curves) ([3]; 10 μM compound, EA titration, vs DMSO only): stabilisation of AKT1 protein
Structure (SMILES): NC1(c2ccc(-c3nc4ccn5c(=O)[nH]nc5c4cc3-c3ccccc3)cc2)CCC1 [MK-2206]
AKT1 protein stabilisation, concentration response curve ([3]; fixed 18% EA): AKT1 protein stabilisation by MK-2206 in a dose dependent manner

Structure (SMILES): Cc1c(F)cc(C(=O)NC2CC2)cc1-c1c(F)cn2c(C(C)(C)C)nnc2c1F [AL 8697]
stabilisation of protein, compound concentration response curves [1]: stabilisation of protein in a dose dependent manner
